Experimental data as given in patent US20140357706A1, “Stearate Compounds” (THE UAB RESEARCH FOUNDATION, priority 2011, published 2014).

Tests used:
[1] = tested on: differentiated 3T3L1 adipocytes; test: Necrosis and apoptosis of differentiated 3T3L1 adipocytes (trypan blue, LDH, flow cytometry); type: cell-based, mouse; conditions: 50 μM
Protocol: 3T3L1 mouse fibroblast cells (ATCC, CL-173™) were maintained according to the manufacture's protocol, in Dulbecco's modified eagle's medium (DMEM) containing 10% Fetal Bovine Serum and antibiotics (M1 medium). Adipocyte differentiation was performed according to standard procedures (42). Briefly, the 3T3L1 fibroblasts were seeded at 30% confluence and allowed to grow to near 100% confluence. On the day after reaching maximum confluence, conversion was induced by replacing the M1 medium with M1 medium containing insulin (5 μg/ml), dexamethasone (0.25 μM), and 3-isobutyl-1-methyl-xanthine (0.5 mM). After 2 days, the cells were changed to M1 medium with insulin (5 μg/ml) for an additional 2 days. Thereafter, the cells were maintained in M1 medium without additives for 2 days.
(§1) 50 μM of stearate, oleate or linoleate was used to treat 3T3L1 cells as this concentration is centered within the normal range for non-esterified stearate in the plasma of humans. Stearate, oleate, or linoleate was loaded onto fatty acid free BSA according to the method reported by Spector and Hoak (Spector and Hoak, 1969). Briefly, stearate (0.5 g) was dissolved in chloroform (100 mL) and mixed well with 10 g diatomaceous earth in a 1 liter flask. The mixture was stirred and dried under nitrogen until powder. Fatty acid free BSA (1 g) was dissolved in 100 mL with DMEM without phenol red and mixed with 3 g of the stearate/diatomaceous earth mixture and stirred for 30 minutes. The stearate/BSA solution was filtered through a 0.45 μm filter, and adjusted to pH 7.4. The concentration of stearate in the solution was detected by use of a NEFA C kit. Oleic and linoleate were loaded in the same way. […] Before the treatment with fatty acid, 3T3L1 preadipocytes were grown to 100%, and were starved in 2% FBS medium for 24 hours.
(§2) After treatment, 3T3L1 cells were harvested, washed with cold PBS, and then resuspended in 100 μl annexin-binding buffer (50 mM HEPES, 700 mM NaCl, 12.5 mM CaCl2, pH 7.4). Cell density was determined, and the cells were diluted to 10^6 cells. Then 5μL of Alex Fluo 488 annexin V and 1 μL propidium iodide (PI) were added. Cells were gently oscillated and incubated for 15 min at room temperature. After adding 400 μL of binding buffer to each tube, cells were kept on ice and analyzed by flow cytometry within 1 hour. Cells that stained positive for Alex Fluo 488 annexin V and negative for PI were considered to be apoptotic. Cells that stained positive for both Alex Fluo 488 annexin V and PI were considered either in the end stage of apoptosis, or necrosis. Cells that stained negative for both Alex Fluo 488 annexin V and PI were considered alive and not undergoing measurable apoptosis. A BD LSR II flow cytometer from Becton Dickinson was used in all flow experiments and the data were analyzed with BD FACSDiva™ software V.6.1.3.
(§3) Lactate dehydrogenase (LDH) release was measured using a cytotoxicity detection kit, according to the manufacture's protocol. After 3T3L1 cells were treated, 1 ml of cell culture medium was removed and centrifuged. The supernatant was retained for assaying. For determinations, 100 μl of LDH assay reagent was added to 100 μl of supernatant and incubated for 30 min at room temperature in the dark. Absorbance was measured at 490 nm. Background release from culture medium alone was subtracted before reporting. Maximum release was measured after adding 2% Triton X-100 to untreated cells.
(§4) After treatment, 3T3L1 cells were harvested and stained with 0.4% trypan blue solution. Cells in the four corners of the grid were counted under a conventional bright field binocular microscope.

3T3L1 preadipocytes = test: Cell death and apoptosis of 3T3L1 preadipocytes (trypan blue, LDH, flow cytometry); type: cell-based, mouse; conditions: 50 μM, vs control; for Percentage of dead cells (trypan blue): 48 hour treatment; for Dead cells (flow cytometry): 48 hours; for Cytotoxicity (lactate dehydrogenase): after 24 hours
Protocol: as §1, §2, §3, §4

[2] = tested on: p21^CIP1/WAF1, p27^KIP1, pCdk2; test: Immunoblot of p21CIP1/WAF1, p27KIP1 and phosphorylated Cdk2 in Hs578T cells; type: cell-based, human
Protocol: (§5) The concentration of stearate used to treat the Hs578T cells was 50 μM. When EGF was used, the concentration was 1 nM EGF. Before the treatment with stearate or EGF, cells were first starved for 24-48 hours. Stearate was loaded onto fatty acid-free bovine serum albumin (BSA) according to the method reported by Spector et al. (13); briefly, stearate (0.5 g) was dissolved in chloroform (100 ml) and mixed well with 10 g diatomaceous earth in a 1 liter flask. The mixture was stirred and dried under nitrogen until powder. BSA is a physiological carrier of fatty acids and was used to avoid the introduction of organic solvents to solutions coming into contact with cells. Fatty acid-free BSA (1 g) was dissolved in 100 ml with Dulbecco's modified Eagle's medium without phenol red and mixed with 3 g of the stearate/diatomaceous earth mixture with stirring for 45 min. The stearate/BSA solution was filtered through a 0.45 μm filter, and adjusted to pH 7.4. The concentration of stearate in the solution was detected with the NEFA C Kit from Wako Chemicals GmbH (Neuss, Germany). All experimental data on Hs578T cells were controlled using fatty acid-free BSA control solutions that were put through the same preparatory procedure described for the stearate/BSA solution except for the fact that no fatty acid was added.
Cells were treated as described above, and lysed with lysis buffer. The supernatants of the lysates or the immunoprecipitates were loaded with Laemmli sample buffer on 10% sodium dodecyl sulfate-polyacrylamide gel electrophoresis gels after boiling at 100° C. for 5 min. Proteins were then transferred to a polyvinylidene difluoride membrane. The membranes were blocked overnight at 4° C. with blocking buffer containing 5% non-fat dried milk powder in Tris-buffered saline-T (25 mM Tris, 140 mM NaCl, 2.7 mM KCl, 0.05% Tween-20, pH 8.0), incubated with primary antibody in blocking buffer at room temperature for 1 hour and incubated with antirabbit or antimouse antibodies labeled with horseradish peroxidase (1:5000) in blocking buffer under the same conditions, and then washed three times for 10 min in Tris-buffered saline-T. The polyvinylidene difluoride membranes were washed and developed using enhanced chemiluminescence reagents.

ERK = test: Immunoblot of phosphorylated ERK in Hs578T cells; type: cell-based, human; conditions: PD98059 added to Hs578T cells
Protocol: as §5
Cells were treated as described above, and lysed with lysis buffer. […]

[3] = tested on: visceral adipocytes from ApoE knockout mice; test: Expression of cIAP2, Bcl-2 and Bax in visceral adipocyte cultures; type: cell-based; conditions: 50 μM fatty acid; vs no additional fatty acid
Protocol: It was hypothesized that stearate induces apoptosis in visceral adipocytes by at least one of the following mechanisms: inhibition of cIAP2, activation of Bcl-2, and activation of BAX. […] Six cultures were exposed to each fatty acid or no fatty acid. The expression of cIAP2, Bcl-2, and Bax was measured in each culture. […] By decreasing levels of the cIAP2 and/or Bcl-2 polypeptides and increasing expression of the Bax polypeptide, stearate administration may lead to an increase in cellular apoptotic activity (such as but not limited to the visceral fat tissues). Without wishing to be bound by any given hypothetical model, it is proposed that this reduction in cIAP2 expression and this increase in Bax expression (independently or in combination) is responsible for the relative decrease in visceral fat tissue that is observed when animals are given a diet that is high in stearate.

[4] = PD98059 in stearate-treated cells

## CCCCCCCC/C=C\CCCCCCCC(=O)O [oleate, oleic acid]
[1]
  Cytotoxicity (lactate dehydrogenase in medium): no significant changes
  Percentage of apoptotic cells (flow cytometry): no significant changes
  Percentage of dead cells (flow cytometry): no significant changes
  Percentage of dead cells (trypan blue): no significant changes
3T3L1 preadipocytes
  Percentage of dead cells (trypan blue): no significant changes
  Dead cells (flow cytometry): significantly decreased
  Cytotoxicity (lactate dehydrogenase): significantly decreased
  Apoptotic cells (flow cytometry): decreased

## COc1cccc(-c2cc(=O)c3ccccc3o2)c1N [PD98059, 2′-amino-3′-methoxyflavone, reference compound]
[2]; PD98059 added following stearate and EGF treatment
  Stearate-induced upregulation of p21^CIP1/WAF1: reverses
[2]; [4]
  Stearate-induced decrease in pCdk2: only partially reversed
  Stearate-induced increases in p27^KIP1: did not reverse
ERK
  ERK phosphorylation induced by stearate and EGF: blocked

## CCCCC/C=C\C/C=C\CCCCCCCC(=O)O [linoleate, linoleic acid]
[1]
  Cytotoxicity (lactate dehydrogenase in medium): no significant changes
  Percentage of apoptotic cells (flow cytometry): no significant changes
  Percentage of dead cells (flow cytometry): no significant changes
  Percentage of dead cells (trypan blue): no significant changes
3T3L1 preadipocytes
  Percentage of dead cells (trypan blue): no significant changes
  Dead cells (flow cytometry): no significant effects
  Cytotoxicity (lactate dehydrogenase): did not change significantly
  Apoptotic cells (flow cytometry): No significant changes
[3]
  Expression of Bax: increased the expression of Bax to a lesser extent
  Expression of cIAP2: no statistically significant effect
